The values that follow are results of earlier work, collected in patent US20070231388A1, “Novel Pharmaceutical Dosage Form and Manufacturing Process” (Atlana Pharma AG, priority 2004, published 2007).

For the series the following is noted: in comparison to pantoprazole itself or to pantoprazole sodium sesquihydrate.

Regarding `COc1ccnc(C[S+]([O-])c2nc3cc(OC(F)F)ccc3[n-]2)c1OC.COc1ccnc(C[S+]([O-])c2nc3cc(OC(F)F)ccc3[n-]2)c1OC.O.O.[Mg+2]` (stereo not shown) [Magnesium bis[5-[difluoromethoxy]-2-[[3,4-dimethoxy-2-pyridinyl]-methyl]sulfinyl]-1H-benzimidazolide]dihydrate], the stability properties result is reported as “improved stability properties”.
